Results published in the NIST ThermoML archive (doi:10.1021/je050389b).

Experiment: xn = mol fraction of the nth substance listed
Settings: Liquid; for viscosity: 100.5 kPa; for mass density: 101 kPa

CCCCCCCC(=O)OCC [ethyl octanoate] + CCO
Settings	mass density, 288.15 K [kg/m3]	mass density, 298.15 K [kg/m3]	mass density, 308.15 K [kg/m3]	mass density, 318.15 K [kg/m3]	viscosity, 288.15 K [mPa·s]	viscosity, 298.15 K [mPa·s]	viscosity, 308.15 K [mPa·s]	viscosity, 318.15 K [mPa·s]
x1 = 0.05	805.14	796.5	787.73	778.81	1.322	1.094	0.915	0.772
x1 = 0.1	814.37	805.66	796.82	787.83	1.299	1.081	0.907	0.773
x1 = 0.15	822.04	813.27	804.39	795.36	1.306	1.087	0.915	0.78
x1 = 0.2	828.52	819.74	810.84	801.79	1.32	1.098	0.926	0.791
x1 = 0.25	833.98	825.17	816.25	807.19	1.337	1.112	0.94	0.804
x1 = 0.3	838.69	829.87	820.94	811.88	1.356	1.129	0.953	0.817
x1 = 0.35	842.77	833.94	825.02	815.96	1.375	1.145	0.969	0.831
x1 = 0.4	846.39	837.55	828.63	819.58	1.398	1.164	0.984	0.844
x1 = 0.45	849.59	840.77	831.86	822.83	1.42	1.183	1	0.859
x1 = 0.5	852.45	843.63	834.72	825.71	1.443	1.202	1.016	0.873
x1 = 0.55	855.04	846.23	837.34	828.36	1.468	1.222	1.033	0.888
x1 = 0.6	857.4	848.6	839.72	830.77	1.492	1.242	1.05	0.903
x1 = 0.65	859.54	850.77	841.92	832.99	1.517	1.262	1.068	0.917
x1 = 0.7	861.52	852.76	843.94	835.05	1.542	1.284	1.085	0.933
x1 = 0.75	863.4	854.68	845.88	837.01	1.568	1.306	1.103	0.948
x1 = 0.8	865.13	856.41	847.64	838.81	1.595	1.327	1.121	0.964
x1 = 0.85	866.72	858	849.25	840.47	1.623	1.35	1.14	0.979
x1 = 0.9	868.19	859.5	850.78	842.05	1.649	1.371	1.159	0.996
x1 = 0.95	869.6	860.93	852.26	843.57	1.673	1.391	1.177	1.013
x1 = 1	870.79	862.15	853.52	844.87	1.697	1.411	1.193	1.027

CCOC(=O)Cc1ccccc1 [ethyl phenylacetate] + CCO
Settings	mass density, 288.15 K [kg/m3]	mass density, 298.15 K [kg/m3]	mass density, 308.15 K [kg/m3]	mass density, 318.15 K [kg/m3]	viscosity, 288.15 K [mPa·s]	viscosity, 298.15 K [mPa·s]	viscosity, 308.15 K [mPa·s]	viscosity, 318.15 K [mPa·s]
x1 = 0.05	825.34	816.54	807.65	798.61	1.366	1.127	0.947	0.798
x1 = 0.1	852	843.05	834	824.82	1.393	1.151	0.967	0.823
x1 = 0.15	874.72	865.65	856.49	847.17	1.447	1.195	1.003	0.855
x1 = 0.2	894.42	885.25	875.99	866.6	1.513	1.244	1.044	0.891
x1 = 0.25	911.6	902.37	893.03	883.57	1.584	1.298	1.089	0.93
x1 = 0.3	926.72	917.42	908.03	898.52	1.663	1.357	1.138	0.971
x1 = 0.35	940.14	930.79	921.36	911.82	1.742	1.418	1.188	1.012
x1 = 0.4	952.17	942.79	933.33	923.77	1.822	1.479	1.239	1.055
x1 = 0.45	963.02	953.61	944.13	934.56	1.904	1.543	1.292	1.099
x1 = 0.5	972.79	963.35	953.86	944.28	1.989	1.61	1.344	1.145
x1 = 0.55	981.67	972.24	962.73	953.16	2.076	1.677	1.399	1.191
x1 = 0.6	989.81	980.37	970.86	961.29	2.164	1.747	1.455	1.238
x1 = 0.65	997.27	987.81	978.31	968.75	2.255	1.821	1.513	1.286
x1 = 0.7	1004.13	994.68	985.19	975.65	2.348	1.895	1.571	1.336
x1 = 0.75	1010.49	1001.03	991.56	982.04	2.446	1.974	1.635	1.387
x1 = 0.8	1016.36	1006.93	997.48	987.98	2.555	2.053	1.702	1.441
x1 = 0.85	1021.84	1012.41	1002.97	993.53	2.672	2.14	1.772	1.498
x1 = 0.9	1026.95	1017.55	1008.14	998.73	2.79	2.23	1.847	1.558
x1 = 0.95	1031.75	1022.36	1012.99	1003.61	2.919	2.33	1.914	1.605
x1 = 1	1036.35	1026.96	1017.6	1008.26	3.002	2.384	1.948	1.624
